Test results as given in ChEMBL document CHEMBL3046590, “Design and synthesis of some thiazolotriazolyl esters as anti-inflammatory and analgesic agents” (Med Chem Res, 2012).

Key:
Mus musculus [1] = assay: Anti-inflammatory activity in Mus musculus BALB/c (mouse) assessed as carrageenan-induced paw swelling at 200 mg/kg, po administered 1 hr followed by carrageenan challenge measured at 180 min (reference value: 52 +/- 4.6 x 10^-2 mm); type: functional
Mus musculus [2] = assay: Antioxidant activity in Mus musculus BALB/c (mouse) stomach assessed as TBARS level at 100 mg/kg, po (reference value: 80.4 +/- 5.4 nmol/g ); type: functional
Mus musculus [3] = assay: Anti-inflammatory activity in Mus musculus BALB/c (mouse) assessed as inhibition of carrageenan-induced paw swelling at 50 mg/kg, po administered 1 hr followed by carrageenan challenge measured at 270 min relative to control; type: functional
Mus musculus [4] = assay: Toxicity in Mus musculus BALB/c (mouse) assessed as mortality at 50 to 200 mg/kg, po after 72 hr; type: organism-based; design: dose 50-200 mg/kg, route oral; conditions: in vivo
Mus musculus [5] = assay: Anti-inflammatory activity in Mus musculus BALB/c (mouse) assessed as carrageenan-induced paw swelling at 100 mg/kg, po administered 1 hr followed by carrageenan challenge measured at 90 min (reference value: 39 +/- 5.6 x 10^-2 mm); type: functional
Mus musculus [6] = assay: Anti-inflammatory activity in Mus musculus BALB/c (mouse) assessed as inhibition of carrageenan-induced paw swelling at 100 mg/kg, po administered 1 hr followed by carrageenan challenge measured at 180 min relative to control; type: functional
Mus musculus [7] = assay: Toxicity in Mus musculus BALB/c (mouse) assessed as behavioral changes at 50 to 200 mg/kg, po after 72 hr; type: organism-based; design: dose 50-200 mg/kg, route oral; conditions: in vivo
Mus musculus [8] = assay: Anti-inflammatory activity in Mus musculus BALB/c (mouse) assessed as carrageenan-induced paw swelling at 200 mg/kg, po administered 1 hr followed by carrageenan challenge measured at 270 min (reference value: 78 +/- 8.4 x 10^-2 mm); type: functional
Mus musculus [9] = assay: Anti-inflammatory activity in Mus musculus BALB/c (mouse) assessed as carrageenan-induced paw swelling at 200 mg/kg, po administered 1 hr followed by carrageenan challenge measured at 360 min (reference value: 105 +/- 4.5 x 10^-2 mm); type: functional
Mus musculus [10] = assay: Anti-inflammatory activity in Mus musculus BALB/c (mouse) assessed as inhibition of carrageenan-induced paw swelling at 200 mg/kg, po administered 1 hr followed by carrageenan challenge measured at 90 min relative to control; type: functional
Mus musculus [11] = assay: Anti-inflammatory activity in Mus musculus BALB/c (mouse) assessed as carrageenan-induced paw swelling at 100 mg/kg, po administered 1 hr followed by carrageenan challenge measured at 270 min (reference value: 78 +/- 8.4 x 10^-2 mm); type: functional
Mus musculus [12] = assay: Anti-inflammatory activity in Mus musculus BALB/c (mouse) assessed as carrageenan-induced paw swelling at 200 mg/kg, po administered 1 hr followed by carrageenan challenge measured at 90 min (reference value: 39 +/- 5.6 x 10^-2 mm); type: functional
Mus musculus [13] = assay: Anti-inflammatory activity in Mus musculus BALB/c (mouse) assessed as carrageenan-induced paw swelling at 50 mg/kg, po administered 1 hr followed by carrageenan challenge measured at 180 min (reference value: 52 +/- 4.6 x 10^-2 mm); type: functional
Mus musculus [14] = assay: Anti-inflammatory activity in Mus musculus BALB/c (mouse) assessed as carrageenan-induced paw swelling at 100 mg/kg, po administered 1 hr followed by carrageenan challenge measured at 360 min (reference value: 105 +/- 4.5 x 10^-2 mm); type: functional
Mus musculus [15] = assay: Anti-inflammatory activity in Mus musculus BALB/c (mouse) assessed as carrageenan-induced paw swelling at 50 mg/kg, po administered 1 hr followed by carrageenan challenge measured at 360 min (reference value: 105 +/- 4.5 x 10^-2 mm); type: functional
Mus musculus [16] = assay: Anti-inflammatory activity in Mus musculus BALB/c (mouse) assessed as carrageenan-induced paw swelling at 100 mg/kg, po administered 1 hr followed by carrageenan challenge measured at 180 min (reference value: 52 +/- 4.6 x 10^-2 mm); type: functional
Mus musculus [17] = assay: Anti-inflammatory activity in Mus musculus BALB/c (mouse) assessed as carrageenan-induced paw swelling at 50 mg/kg, po administered 1 hr followed by carrageenan challenge measured at 270 min (reference value: 78 +/- 8.4 x 10^-2 mm); type: functional
Mus musculus [18] = assay: Anti-inflammatory activity in Mus musculus BALB/c (mouse) assessed as carrageenan-induced paw swelling at 50 mg/kg, po administered 1 hr followed by carrageenan challenge measured at 90 min (reference value: 39 +/- 5.6 x 10^-2 mm); type: functional
Mus musculus [19] = assay: Analgesic activity in Mus musculus BALB/c (mouse) assessed as inhibition of acetic acid-induced writhing at 100 mg/kg, po administered 1 hr followed by acetic acid challenge measured for 10 min; type: functional
Mus musculus [20] = assay: Anti-inflammatory activity in Mus musculus BALB/c (mouse) assessed as inhibition of carrageenan-induced paw swelling at 200 mg/kg, po administered 1 hr followed by carrageenan challenge measured at 270 min relative to control; type: functional
Mus musculus [21] = assay: Anti-inflammatory activity in Mus musculus BALB/c (mouse) assessed as inhibition of carrageenan-induced paw swelling at 100 mg/kg, po administered 1 hr followed by carrageenan challenge measured at 270 min relative to control; type: functional
Mus musculus [22] = assay: Anti-inflammatory activity in Mus musculus BALB/c (mouse) assessed as inhibition of carrageenan-induced paw swelling at 50 mg/kg, po administered 1 hr followed by carrageenan challenge measured at 180 min relative to control; type: functional
Mus musculus [23] = assay: Anti-inflammatory activity in Mus musculus BALB/c (mouse) assessed as inhibition of carrageenan-induced paw swelling at 200 mg/kg, po administered 1 hr followed by carrageenan challenge measured at 180 min relative to control; type: functional
Mus musculus [24] = assay: Anti-inflammatory activity in Mus musculus BALB/c (mouse) assessed as inhibition of carrageenan-induced paw swelling at 50 mg/kg, po administered 1 hr followed by carrageenan challenge measured at 90 min relative to control; type: functional
Mus musculus [25] = assay: Anti-inflammatory activity in Mus musculus BALB/c (mouse) assessed as inhibition of carrageenan-induced paw swelling at 100 mg/kg, po administered 1 hr followed by carrageenan challenge measured at 360 min relative to control; type: functional

| SMILES | Activity (Mus musculus [1]) [×10⁻² mm] | Activity (Mus musculus [2]) [nmol/g] | Activity (Mus musculus [4]) | Activity (Mus musculus [5]) [×10⁻² mm] | inhibition in vivo at 100 mg/kg (Mus musculus [6]) [%] | Activity (Mus musculus [7]) | Activity (Mus musculus [8]) [×10⁻² mm] | Activity (Mus musculus [9]) [×10⁻² mm] | Activity (Mus musculus [11]) [×10⁻² mm] | Activity (Mus musculus [12]) [×10⁻² mm] | Activity (Mus musculus [13]) [×10⁻² mm] | Activity (Mus musculus [14]) [×10⁻² mm] | Activity (Mus musculus [15]) [×10⁻² mm] | Activity (Mus musculus [16]) [×10⁻² mm] | Activity (Mus musculus [17]) [×10⁻² mm] | Activity (Mus musculus [18]) [×10⁻² mm] | also measured |
| --- | --- | --- | --- | --- | --- | --- | --- | --- | --- | --- | --- | --- | --- | --- | --- | --- | --- |
| COc1ccc(-c2nnc(S)[nH]2)cc1 | 53.2 | 73.3 | Non-toxic | 33.7 | 37.9 | Non-toxic | 75 | 104.5 | 79.5 | 32.4 | 49.7 | 133 | 100 | 32.3 | 64.8 | 59.3 | inhibition in vivo at 50 mg/kg (Mus musculus [3]): 17.9%; inhibition in vivo at 200 mg/kg (Mus musculus [10]): 16.9% |
| CCOC(=O)c1sc2nc(CCc3cc(OC)c(OC)c(OC)c3)nn2c1C | 38.9 | 109.1 | Non-toxic | 34.5 | 28.8 | Non-toxic | 60.9 | 92.9 | 63.4 | 32.4 | 29 | 83.8 | 101.4 | 37 | 73.8 | 19.5 | inhibition in vivo at 100 mg/kg (Mus musculus [19]): 85.9%; inhibition in vivo at 200 mg/kg (Mus musculus [20]): 21.9%; inhibition in vivo at 100 mg/kg (Mus musculus [21]): 18.7%; inhibition in vivo at 50 mg/kg (Mus musculus [22]): 44.2%; inhibition in vivo at 200 mg/kg (Mus musculus [23]): 25.2%; inhibition in vivo at 50 mg/kg (Mus musculus [24]): 50%; inhibition in vivo at 100 mg/kg (Mus musculus [25]): 20.2% |
